Results published in PMC3944516, “Isolation and Characterization of Anti-Adenoviral Secondary Metabolites from Marine Actinobacteria” (Marine Drugs, 2014).
“Also recorded” adds a separate entry of the source.

Tests used:
HAdV type 5 [1] = assay: quantitative real-time PCR (qPCR) anti-adenoviral dose-response assay; format: cell-based, human adenovirus type 5 (strain F2853-5b) in A549 cells; conditions: for EC50: Human mastadenovirus C, A549 host cells, qPCR of viral genomes after 24 h, duplicates; for anti-adenoviral activity (in words): dose-response up to 0.4 mM, qPCR 24 h post infection (Figure 8B)
Protocol: In order to confirm the antiviral activity observed during the screening campaign (Figure 3) and determine the EC50 values of the analogs, we conducted a dose-response experiment by a standardized quantitative real-time PCR (qPCR) assay (Figure 5). In this assay, the number of adenoviral genomes is assessed in relationship to the number of cells and the replication of HAdV type 5 on A549 host cells was assessed.
Figure 5 Dose-response study of the identified compounds on HAdV type 5. Each concentration point was run in duplicate and qPCR-analysis performed after 24 h. The amount of HAdV type 5 genomes in each treated sample was compared to infected but non-treated samples to obtain the inhibition of the percentage of control (y-axis). See the experimental section for details.
The quantitative Real Time PCR (qPCR) assay was performed as previously described. Briefly, A549 cells in 24 well plates (Nunc™ #142475) were infected with HAdV type 5 (1 pg per cell) and incubated with compound for 24 h. Thereafter, cellular and viral DNA was prepared using a QIAamp DNA blood minikit (Qiagen, Solna, Sweden) and quantitative real-time PCR was used to detect newly synthesized viral DNA and the inhibitory effect of the compounds. The principle of quantitative real-time PCR and the design of primers and probes for analysis of various HAdV types representing different adenovirus species have previously been described. Quantitative real-time PCR was carried out using a primer pair and a FAM-labeled probe detecting and amplifying the viral hexon gene. The amount of detected viral hexon DNA was normalized to the cellular RNaseP gene. Real-time PCR was performed in an ABI Prism 7900HT sequence detector and analyzed with Sequence Detector software version 2.4 (Applied Biosystems®, Life Technologies, Grand Island, NY, USA).
Determination of the EC50 values was performed with non-linear regression analysis with a variable slope using GraphPad Prism software version 6.0c (GraphPad Software, San Diego, CA, USA).

[2] = XTT based cytotoxicity test on A549 cells; format: cell-based, human; conditions: human, A549 cells, 24 h, XTT, normalized against DMSO controls, two independent experiments; for viability at 24 h, 400 µM: read-out: % Viable Cells at 400 μM; for viability at 24 h, 800 µM: read-out: % Viable Cells at 800 μM
From the text: (§1) Consideration of cellular cytotoxicity is essential when identifying antiviral compounds. Compounds that negatively interfere with the proliferation or viability of host cells will be recorded as false positives when assayed for antiviral activity. […] The XTT test measures the ability of mitochondrial enzymes to reduce 2,3-bis-(2-methoxy-4-nitro-5-sulfophenyl)-2H-tetrazolium-5-carboxanilide to a colored formazan dye that is spectrophotometrically quantified. […] Strikingly, butenolide 4 with the non-functionalized side-chain affected the viability dramatically. At both 400 and 800 μM of 4 the percentage of viable cells was close to zero, whereas for butenolide 1–3 the cells were as viable as the DMSO control at the concentrations tested. […] To further elucidate this difference and determine whether the cytotoxicity was cell type specific, we performed a dose-response experiment and investigated the cytotoxicity on human diploid fibroblasts derived from foreskin (FSU). FSU cells are isolated from the dermis of juvenile foreskin and, unlike A549 cells, are not derived from carcinoma, but primary cells with a limited expected number of cell divisions. […] However, the butenolide 4 with a non-functionalized side-chain reduced the viability of A549 cells and FSU cells to almost zero at 400 and 800 μM. […] The reason for the steep concentration dependence on cytotoxicity for the butenolide 4 containing a non-functionalized side-chain is presently unknown, and the large difference in cytotoxic potential between 4 and the other analogs is noteworthy when considering the minor structural differences in their side-chains.
(§2) The potential cytotoxic effect of the compounds was determined with XTT-based Cell Proliferation Kit II (Roche Applied Science, Penzberg, Germany). This method is a colorimetric assay based on the cleavage of the tetrazolium salt XTT to a soluble formazan salt by viable cells. Approximately, 13,000 A549 cells were seeded per well in 96-well plates on the day before addition of compounds. The next day, the growth medium was removed from the wells and replaced with 100 μL of phenol-red free DMEM with 2% FBS containing compound. In parallel, an amount of DMSO corresponding to the same amount of test compound was added to the cells and the plate was incubated at 37 °C for 20 h. Subsequently, 50 μL of XTT solution was added per well and the plate was incubated at 37 °C for 4 h and finally the intensity of the formazan dye was measured by spectrophotometry at a wavelength of 490 nm.

A549 cells = assay: XTT based cytotoxicity test on A549 cells; format: cell-based, human; conditions: for concentration above which the viability of the cells is significantly reduced: A549 cells, XTT (Figure 8C)
From the text: as §1, §2

[3] = system: FSU cells (human diploid fibroblasts derived from foreskin); assay: XTT based cytotoxicity dose-response on FSU cells; format: cell-based; conditions: 24 h
From the text: as §1
Figure 6 The cytotoxicity profile of butenolide ketone 3 and butenolide 4 with a non-functionalized side chain, on two cell lines, A549 cells and FSU cells, analyzed after 24 h. See experimental section for details.
as §2

HAdV type 5 [4] = assay: time-of-addition assay (qPCR); format: cell-based, human adenovirus type 5 in A549 cells
Protocol: Figure 7 Characterization of the antiviral activity of the butenolide ketone 3. The antiviral activity of the compounds was obtained by comparing the amount of HAdV type 5 genomes per cell to non-treated but infected control samples (y-axis). (A) Time-of-addition assay where 200 μM of butenolide ketone 3 was added at different time points in comparison to the addition of HAdV 5 at time 0 h. Samples were analyzed 24 h after the infection (+24 h) with qPCR; (B) Binding assay with ^35S-labelled HAdV 5 virions, with 200 μM compound 3 pretreated A549 cells for 1.5 h prior time-of-infection (TOI) and no pretreatment; (C) Virucidal assay where HAdV 5 virions were pretreated with 200 μM of butenolide ketone 3 prior addition to A549 cells and analyzed after 24 h. […]
The quantitative Real Time PCR (qPCR) assay was performed as previously described. […] Thereafter, cellular and viral DNA was prepared using a QIAamp DNA blood minikit (Qiagen, Solna, Sweden) and quantitative real-time PCR was used to detect newly synthesized viral DNA and the inhibitory effect of the compounds. The principle of quantitative real-time PCR and the design of primers and probes for analysis of various HAdV types representing different adenovirus species have previously been described. Quantitative real-time PCR was carried out using a primer pair and a FAM-labeled probe detecting and amplifying the viral hexon gene. […]

[5] = system: HAdV 5 virions binding to A549 cells; assay: binding assay with 35S-labelled HAdV 5 virions; format: cell-based, human adenovirus type 5 in A549 cells; conditions: A549 cells pre-treated with 200 μM for 1.5 h, compared to the control
Protocol: (§3) Figure 7 Characterization of the antiviral activity of the butenolide ketone 3. The antiviral activity of the compounds was obtained by comparing the amount of HAdV type 5 genomes per cell to non-treated but infected control samples (y-axis). (A) Time-of-addition assay where 200 μM of butenolide ketone 3 was added at different time points in comparison to the addition of HAdV 5 at time 0 h. Samples were analyzed 24 h after the infection (+24 h) with qPCR; (B) Binding assay with ^35S-labelled HAdV 5 virions, with 200 μM compound 3 pretreated A549 cells for 1.5 h prior time-of-infection (TOI) and no pretreatment; (C) Virucidal assay where HAdV 5 virions were pretreated with 200 μM of butenolide ketone 3 prior addition to A549 cells and analyzed after 24 h.
This was primarily to investigate in which stage of the viral infectious cycle that the butenolide ketone 3 inhibited and consequently to reduce the number of possible drug-targets for further mode-of-action analysis. […] Simultaneous addition of 200 μM of 3 and virus (0 h) reduced the viral replication to below 20%, which is consistent with Figure 5. […]
^35S labelling of HAdV 5 was performed as previously described as well as the binding experiment. […] The cell-associated radioactivity was measured using a liquid scintillation counter (Wallac 1409, Perkin-Elmer, Waltham, MA, USA).

HAdV 5 virions = assay: virucidal assay; format: cell-based, human adenovirus type 5 in A549 cells; conditions: virions incubated with 200 μM for 2 h before infection, qPCR after 24 h
Protocol: as §3
This was primarily to investigate in which stage of the viral infectious cycle that the butenolide ketone 3 inhibited and consequently to reduce the number of possible drug-targets for further mode-of-action analysis. […]
The HAdV type 5 stock was diluted in DMEM (Sigma-Aldrich, St. Louis, MO, USA) with 2% FBS (Gibco®, Life Technologies, Grand Island, NY, USA) to the appropriate concentration to be added per well. […] In parallel, an identical mixture with no incubation time was added to wells as a control and the antiviral activity was analyzed 24 h post infection with qPCR assay.

Row | SMILES | EC50 (HAdV type 5 [1]) [µM] | viability at 24 h, 400 µM [2] [%] | viability at 24 h, 800 µM [2] [%] | concentration above which the viability of the cells is significantly reduced (A549 cells; 24 h) | anti-adenoviral activity (in words) (HAdV type 5 [1]) | further results
1 | CC(=O)[C@H](C)CCCCC[C@H]1C=CC(=O)O1 [Compound 3] | 91 | 102 ± 5 | 101 ± 3 | – | – | cytotoxicity (in words) (A549 cells; XTT, concentrations tested): no cytotoxicity; cytotoxicity at the highest concentration (in words) ([3]; 2 mM, XTT (Figure 6)): no prominent cytotoxicity; also recorded: did not affect the viability of FSU cells to a great extent; viral replication, % of non-treated infected control (HAdV type 5 [4]; 200 μM added simultaneously with virus (0 h), qPCR 24 h after infection): below 20%; effect on viral infection (in words) (HAdV type 5 [4]; cells pre-incubated with 200 μM for four hours prior to the addition of virus, qPCR at 24 h): completely blocked the viral infection; binding of the virus to the cells (in words) [5]: did not reduce the binding of the virus to the cells; virucidal activity (in words) (HAdV 5 virions): did not differ between the pretreated and non-pretreated virions
2 | CCC(C)(O)CCCCC[C@H]1C=CC(=O)O1 (some centres unmarked) [Compound 2] | 183 | 106 ± 7 | 100 ± 3 | – | – | –
3 | CCC(C)CCCCCC1C=CC(=O)O1 (centres unmarked) [Compound 4] | 90 | 3 ± 1 | 3 ± 1 | above 0.2 mM | – | viability of A549 cells (in words) (A549 cells; 100 μM, 24 h, XTT (Figure 6)): in line with untreated DMSO control; cytotoxicity on A549 cells (in words) (A549 cells; 200 μM, 24 h, XTT (Figure 6)): toxicity was strongly decreased; viability of A549 cells (in words) (A549 cells; 400 and 800 μM, 24 h, XTT): close to zero; concentration showing cytotoxicity relative to EC50 (A549 cells; cytotoxic concentration compared with the EC50 on HAdV type 5): approximately three times its EC50 value; viability of FSU cells (in words) ([3]; 100 μM, XTT (Figure 6)): in line with untreated DMSO control; cytotoxicity on FSU cells (in words) ([3]; 200 μM, XTT (Figure 6)): toxicity was strongly decreased; viability of FSU cells (in words) ([3]; 400 and 800 μM, XTT): almost zero
4 | CC(=O)[C@H](C)CCCCC[C@H]1CCC(=O)O1 [Compound 5] | – | – | – | – | eliminated the antiviral activity | –
5 | CC[C@H](C)CCCCC[C@H]1CCC(=O)O1 [Compound 6] | – | – | – | above 0.4 mM | eliminated the antiviral activity | –
6 | C[C@H](O)[C@H](C)CCCCC[C@H]1C=CC(=O)O1 [Compound 1a] | 113 | 98 ± 6 | 96 ± 4 | – | – | –
